Measurements as given in ChEMBL document CHEMBL1134308, “Novel tropane-based irreversible ligands for the dopamine transporter” (J Med Chem, 2001).

The compounds below were run against Sodium-dependent dopamine transporter (Rattus norvegicus, UniProt P23977) (assay: Displacement of [3H]WIN-35 428 binding at dopamine transporter (DAT) in rat caudate putamen).
Sequence of Sodium-dependent dopamine transporter (P23977 whole entry): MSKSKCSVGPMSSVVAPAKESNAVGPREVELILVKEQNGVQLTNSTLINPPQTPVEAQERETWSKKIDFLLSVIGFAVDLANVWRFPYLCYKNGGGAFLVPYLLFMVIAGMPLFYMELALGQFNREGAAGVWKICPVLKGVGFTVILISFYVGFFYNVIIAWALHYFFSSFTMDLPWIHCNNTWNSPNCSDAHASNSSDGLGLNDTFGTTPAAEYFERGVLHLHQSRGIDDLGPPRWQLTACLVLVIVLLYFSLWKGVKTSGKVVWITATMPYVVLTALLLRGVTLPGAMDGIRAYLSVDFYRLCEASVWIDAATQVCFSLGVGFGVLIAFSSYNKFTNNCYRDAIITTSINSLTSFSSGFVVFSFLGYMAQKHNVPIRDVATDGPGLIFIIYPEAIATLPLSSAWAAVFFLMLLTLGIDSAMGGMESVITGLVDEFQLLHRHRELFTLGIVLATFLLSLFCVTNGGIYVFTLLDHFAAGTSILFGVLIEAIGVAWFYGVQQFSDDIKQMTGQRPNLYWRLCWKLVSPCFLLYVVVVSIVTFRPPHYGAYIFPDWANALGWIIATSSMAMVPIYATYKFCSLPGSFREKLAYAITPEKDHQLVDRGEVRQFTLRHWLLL
Format: tissue-based
With COC(=O)C1C(c2ccc(Cl)cc2)CC2CCC1N2CCCCc1ccc(N=[N+]=[N-])c(I)c1 (stereo unspecified) the Ki was 33 nM.
Compound CN1C2CCC1C(C(=O)OCCc1ccc(N=[N+]=[N-])c(I)c1)C(c1ccc(Cl)cc1)C2 (stereo unspecified) has a Ki of 14.5 nM.
For COC(=O)C1C(c2ccc(Cl)cc2)CC2CCC1N2CCCCc1ccc(N=C=S)cc1 (stereo unspecified), the Ki was 31.5 nM.
In the case of [N-]=[N+]=Nc1ccc(CCCN2[C@@H]3CC[C@H]2C[C@@H](OC(c2ccc(F)cc2)c2ccc(F)cc2)C3)cc1I, the Ki is reported as 284 nM.
Fc1ccc(C(O[C@H]2C[C@H]3CC[C@@H](C2)N3CCCc2ccc(N=C=S)cc2)c2ccc(F)cc2)cc1 showed a Ki of 611 nM.
Fc1ccc(C(O[C@H]2C[C@H]3CC[C@@H](C2)N3CCCCc2ccc(N=C=S)cc2)c2ccc(F)cc2)cc1 gave a Ki of 420 nM.
